Seven molecules from article PMC11144196, “Structural basis for human mitochondrial tRNA maturation” (Nature Communications, 2024) can be followed below.

Experiment [1] has as its target T1, TRNT1 (Homo sapiens, UniProt Q96Q11).
T1 construct: residues 42-434, no mitochondrial transport signal; N-terminal His6-TEV tag cleaved; E. coli KRX
T1 sequence (Q96Q11 42-434): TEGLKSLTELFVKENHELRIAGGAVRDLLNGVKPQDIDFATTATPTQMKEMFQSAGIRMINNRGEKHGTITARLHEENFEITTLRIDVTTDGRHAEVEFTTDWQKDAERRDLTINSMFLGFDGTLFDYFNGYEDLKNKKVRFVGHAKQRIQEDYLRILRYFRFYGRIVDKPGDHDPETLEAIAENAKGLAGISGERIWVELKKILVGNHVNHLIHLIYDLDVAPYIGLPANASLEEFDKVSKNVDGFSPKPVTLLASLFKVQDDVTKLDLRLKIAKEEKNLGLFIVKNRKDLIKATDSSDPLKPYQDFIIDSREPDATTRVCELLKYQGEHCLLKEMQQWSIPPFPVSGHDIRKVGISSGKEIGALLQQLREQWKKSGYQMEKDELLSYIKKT
Nature of the experiment: cryo-EM structure. The class given is binding. The following applies: TRNT1 active site; complex with TRMT10C(SAH)/SDR5C1(NADH)/tRNA-Ile; 0.5 mM CDP, pH 8.0.

The target in experiment [2] is T1, TRNT1. Nature of the experiment: differential scanning fluorimetry (SYPRO Orange). Type of experiment: binding. The following applies: 5 uM protein, pH 7.5, 150 mM NaCl; thermal stabilisation.
Experiment [3] deals with T2, TRMT10C/SDR5C1 complex (SAM/SAH site in TRMT10C) (Homo sapiens, UniProt Q7L0Y3).
T2 construct: TRMT10C residues 40-403 (no mitochondrial transport signal) co-expressed with SDR5C1 residues 1-261 in E. coli; 2:4 TRMT10C:SDR5C1; HisTrap purified; with 3-hydroxyacyl-CoA dehydrogenase type-2
T2 sequence (Q7L0Y3 40-403): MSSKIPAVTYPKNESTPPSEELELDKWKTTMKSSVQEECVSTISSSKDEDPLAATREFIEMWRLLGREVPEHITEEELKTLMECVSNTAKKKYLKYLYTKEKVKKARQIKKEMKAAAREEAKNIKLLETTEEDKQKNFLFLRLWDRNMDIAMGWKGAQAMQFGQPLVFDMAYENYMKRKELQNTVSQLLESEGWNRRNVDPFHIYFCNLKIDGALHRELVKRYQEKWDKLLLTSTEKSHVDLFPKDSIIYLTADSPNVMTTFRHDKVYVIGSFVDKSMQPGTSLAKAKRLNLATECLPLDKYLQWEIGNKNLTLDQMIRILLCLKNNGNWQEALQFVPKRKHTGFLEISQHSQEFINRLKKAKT
T2 sequence (Q99714 1-261 partner): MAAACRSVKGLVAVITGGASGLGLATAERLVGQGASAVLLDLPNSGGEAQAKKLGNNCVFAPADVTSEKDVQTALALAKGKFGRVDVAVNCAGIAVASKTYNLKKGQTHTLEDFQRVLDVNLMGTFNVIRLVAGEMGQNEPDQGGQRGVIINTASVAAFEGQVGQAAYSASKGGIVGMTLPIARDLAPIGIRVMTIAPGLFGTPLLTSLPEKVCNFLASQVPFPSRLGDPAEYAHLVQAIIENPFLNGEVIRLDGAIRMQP
Nature of the experiment: 3H-methyl transfer to pre-tRNA, scintillation counting. The note with it: pre-tRNA-Ile (G9) or pre-tRNA-His-Ser (A9), pH 8.5, 5 mM MgCl2, 37 °C; labelled compound. The class given is biochemical.

In experiment [4] the target is T2, TRMT10C/SDR5C1 complex (SAM/SAH site in TRMT10C). Nature of the experiment: cryo-EM structure. Type of experiment: binding. The following applies: methyltransferase active site of TRMT10C; with NADH and pre-tRNA-Ile (8CBO); also with PRORP D479A (8CBK), ELAC2 H548A (8CBL) or TRNT1 (8CBM).
For experiment [5] the target is unchanged. The experiment can be described thus: differential scanning fluorimetry (SYPRO Orange). The class given is binding. The following applies: 5 uM protein, pH 7.5, 150 mM NaCl; thermal stabilisation. In general terms: DSF heats the sample and reads unfolding from a dye or from intrinsic fluorescence.
Experiment [6] addresses T3, TRMT10C/SDR5C1 complex (NADH site in SDR5C1) (Homo sapiens, UniProt Q99714).
T3 construct: gene HSD17B10; SDR5C1 residues 1-261 co-expressed with TRMT10C residues 40-403 in E. coli; SDR5C1 tetramer; HisTrap purified; with tRNA methyltransferase 10 homolog C
T3 sequence (Q99714 1-261): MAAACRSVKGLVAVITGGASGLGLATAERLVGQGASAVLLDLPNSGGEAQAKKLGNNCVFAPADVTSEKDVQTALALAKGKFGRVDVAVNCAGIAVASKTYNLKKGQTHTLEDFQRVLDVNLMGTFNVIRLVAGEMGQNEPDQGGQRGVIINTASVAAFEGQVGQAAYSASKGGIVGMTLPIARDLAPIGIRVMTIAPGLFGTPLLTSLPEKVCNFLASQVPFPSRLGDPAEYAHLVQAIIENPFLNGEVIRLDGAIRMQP
T3 sequence (Q7L0Y3 40-403 partner): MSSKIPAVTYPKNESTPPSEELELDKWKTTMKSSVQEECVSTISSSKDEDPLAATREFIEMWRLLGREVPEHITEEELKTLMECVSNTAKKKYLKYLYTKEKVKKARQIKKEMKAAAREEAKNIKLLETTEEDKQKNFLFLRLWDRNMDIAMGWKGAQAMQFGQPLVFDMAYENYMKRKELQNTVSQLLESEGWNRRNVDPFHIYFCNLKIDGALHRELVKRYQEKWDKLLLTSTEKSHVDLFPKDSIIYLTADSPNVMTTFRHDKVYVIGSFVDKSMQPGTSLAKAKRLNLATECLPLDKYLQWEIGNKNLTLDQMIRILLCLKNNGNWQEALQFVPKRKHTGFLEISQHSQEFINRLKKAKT
Nature of the experiment: differential scanning fluorimetry (SYPRO Orange). The note with it: 5 uM protein, pH 7.5, 150 mM NaCl; thermal stabilisation. The class given is binding.

The target of experiment [7] is T4, ELAC2 H548A (residues 31-826) (human, UniProt Q9BQ52 31-826, H548A).
T4 construct: human ELAC2 (long-form RNase Z), UniProt Q9BQ52, residues 31-826; pET28a-derived vector, His6-TEV site; treated with TEV protease; also called mt-RNase Z; source: E. coli KRX, purified like WT (HisTrap, Resource Q, TEV, SEC); not shown: His6, N-terminal, cleaved
T4 sequence (looked up): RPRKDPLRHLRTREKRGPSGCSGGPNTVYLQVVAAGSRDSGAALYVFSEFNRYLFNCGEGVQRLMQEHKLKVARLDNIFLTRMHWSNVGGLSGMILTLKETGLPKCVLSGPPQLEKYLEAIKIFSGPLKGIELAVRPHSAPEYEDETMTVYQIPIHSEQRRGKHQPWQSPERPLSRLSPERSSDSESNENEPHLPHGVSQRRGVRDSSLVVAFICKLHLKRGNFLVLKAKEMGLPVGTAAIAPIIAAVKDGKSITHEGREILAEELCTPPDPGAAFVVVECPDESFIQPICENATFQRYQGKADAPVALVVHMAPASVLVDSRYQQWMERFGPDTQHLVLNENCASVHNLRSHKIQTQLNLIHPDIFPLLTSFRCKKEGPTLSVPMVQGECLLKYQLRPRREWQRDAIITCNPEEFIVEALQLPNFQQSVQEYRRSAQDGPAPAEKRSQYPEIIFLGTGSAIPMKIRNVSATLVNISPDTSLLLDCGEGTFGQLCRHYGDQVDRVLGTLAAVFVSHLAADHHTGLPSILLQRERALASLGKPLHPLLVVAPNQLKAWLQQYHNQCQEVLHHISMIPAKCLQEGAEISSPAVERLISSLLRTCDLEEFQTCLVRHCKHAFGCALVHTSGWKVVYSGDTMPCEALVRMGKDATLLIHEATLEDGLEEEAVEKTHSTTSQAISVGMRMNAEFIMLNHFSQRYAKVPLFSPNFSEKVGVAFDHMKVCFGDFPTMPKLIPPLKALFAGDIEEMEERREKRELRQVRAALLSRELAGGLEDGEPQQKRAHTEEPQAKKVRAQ
The experiment can be described thus: cryo-EM structure; Complex 3: 1 uM TRMT10C/SDR5C1, 10 uM SAH, 10 uM NADH, 5 uM pre-tRNA^His(0,Ser), then 5 uM ELAC2 H548A; 50 mM Tris pH 8.0, 100 mM NaCl, 1 mM TCEP; ELAC2 sits on the pre-tRNA held by the subcomplex. The note with it: both partners purified.

In experiment [8] the target is T5, PRORP D479A (residues 45-583) (human, UniProt O15091 45-583, D479A).
T5 construct: human PRORP (protein-only RNase P endoribonuclease), UniProt O15091, residues 45-583; pET28a-derived vector, His6-TEV site; treated with TEV protease; source: E. coli BL21(DE3) Rosetta, purified like WT (HisTrap, TEV, SEC); not shown: His6, N-terminal, cleaved
T5 sequence (looked up): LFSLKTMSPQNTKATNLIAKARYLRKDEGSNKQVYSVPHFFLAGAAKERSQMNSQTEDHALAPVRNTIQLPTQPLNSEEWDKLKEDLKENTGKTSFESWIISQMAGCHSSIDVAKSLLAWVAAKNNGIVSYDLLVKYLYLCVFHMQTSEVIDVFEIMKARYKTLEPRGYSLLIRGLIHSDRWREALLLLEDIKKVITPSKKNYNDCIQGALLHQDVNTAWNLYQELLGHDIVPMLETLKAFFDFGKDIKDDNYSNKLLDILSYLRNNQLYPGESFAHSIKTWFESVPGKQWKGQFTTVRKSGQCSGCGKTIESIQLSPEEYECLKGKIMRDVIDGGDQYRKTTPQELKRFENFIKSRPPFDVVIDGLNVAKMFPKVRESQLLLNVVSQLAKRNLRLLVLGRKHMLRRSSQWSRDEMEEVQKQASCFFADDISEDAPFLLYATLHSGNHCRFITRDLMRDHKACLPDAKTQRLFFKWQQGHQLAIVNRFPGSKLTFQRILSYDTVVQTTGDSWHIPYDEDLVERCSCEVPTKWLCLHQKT
Nature of the experiment: cryo-EM structure; Complex 2: 4 uM TRMT10C/SDR5C1, 40 uM SAH, 40 uM NADH, 20 uM pre-tRNA^His-Ser, then 10 uM PRORP D479A; 50 mM Tris pH 8.0, 100 mM NaCl, 1 mM TCEP; PRORP sits on the pre-tRNA held by the subcomplex. The following applies: both partners purified.

For the molecule `Nc1ccn([C@@H]2O[C@H](COP(=O)(O)OP(=O)(O)O)[C@@H](O)[C@H]2O)c(=O)n1` [CDP], the cryo-EM structure entry at TRNT1 [1] is given as “a molecule of CDP that is likely π-stacked with the substrate A73 nucleotide”. In addition, the Tm entry at TRNT1 [2] is “CTP, ATP or CDP to TRNT1 stabilised these enzymes”. In the case of `C[S+](CC[C@H](N)C(=O)O)C[C@H]1O[C@@H](n2cnc3c(N)ncnc32)[C@H](O)[C@@H]1O` (stereo partly shown) [SAM], the “3H-methyl transfer to pre-tRNA, scintillation counting” value in experiment [3] is given as “Methylation assays, using ^3H-SAM as methyl donor, showed that the TRMT10C/SDR5C1 complex methylates”. Take `Nc1ccn([C@@H]2O[C@H](COP(=O)(O)OP(=O)(O)OP(=O)(O)O)[C@@H](O)[C@H]2O)c(=O)n1` [CTP]: on TRNT1 [2], the Tm entry was “CTP, ATP or CDP to TRNT1 stabilised these enzymes”.

Consider `Nc1ncnc2c1ncn2[C@@H]1O[C@H](CSCC[C@H](N)C(=O)O)[C@@H](O)[C@H]1O` [SAH], for which the cryo-EM structure result in experiment [4] is on record as “In all the structures, the TRMT10C catalytic pocket contains SAH”. In experiment [5], the Tm result was “addition of co-factors or co-factor analogues, i.e. SAH to TRMT10C”. On to `Nc1ncnc2c1ncn2[C@@H]1O[C@H](COP(=O)(O)OP(=O)(O)OP(=O)(O)O)[C@@H](O)[C@H]1O` [ATP], for which, on TRNT1 [2], the Tm result is listed as “CTP, ATP or CDP to TRNT1 stabilised these enzymes”. As to `NC(=O)C1=CN([C@@H]2O[C@H](COP(=O)(O)OP(=O)(O)OC[C@H]3O[C@@H](n4cnc5c(N)ncnc54)[C@H](O)[C@@H]3O)[C@@H](O)[C@H]2O)C=CC1` [NADH], in experiment [6], the Tm result is “NADH to SDR5C1 and CTP, ATP or CDP to TRNT1 stabilised these enzymes”.

B1: TRMT10C (residues 40-403, without the mitochondrial transport signal) (enzyme, human, UniProt Q7L0Y3 40-403, looked up)
chain: MSSKIPAVTYPKNESTPPSEELELDKWKTTMKSSVQEECVSTISSSKDEDPLAATREFIEMWRLLGREVPEHITEEELKTLMECVSNTAKKKYLKYLYTKEKVKKARQIKKEMKAAAREEAKNIKLLETTEEDKQKNFLFLRLWDRNMDIAMGWKGAQAMQFGQPLVFDMAYENYMKRKELQNTVSQLLESEGWNRRNVDPFHIYFCNLKIDGALHRELVKRYQEKWDKLLLTSTEKSHVDLFPKDSIIYLTADSPNVMTTFRHDKVYVIGSFVDKSMQPGTSLAKAKRLNLATECLPLDKYLQWEIGNKNLTLDQMIRILLCLKNNGNWQEALQFVPKRKHTGFLEISQHSQEFINRLKKAKT
notes: human TRMT10C, tRNA methyltransferase of mitochondrial RNase P, UniProt Q7L0Y3, residues 40-403; The subcomplex was purified on a HisTrap column; also called MTase; source: E. coli BL21(DE3) Rosetta, co-expressed with SDR5C1, purified (HisTrap, SEC, heparin, SEC)
B1: the binding result in experiment [7] and in experiment [8] was “binds” in each case.
